How the values were obtained:
Bicalutamide + Foretinib = compound: CC(O)(CS(=O)(=O)c1ccc(F)cc1)C(=O)Nc1ccc(C#N)c(C(F)(F)F)c1 [Bicalutamide] + COc1cc2c(Oc3ccc(NC(=O)C4(C(=O)Nc5ccc(F)cc5)CC4)cc3F)ccnc2cc1OCCCN1CCOCC1 [Foretinib] (partner 0.25 µM); experiment: relative viability (nuclei count vs DMSO), 5 days (fraction); higher = more cells survive
Procedure, shortened: (§1)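 Lung cancer cell lines in 1536-well plates got either a single drug or a fixed anchor-drug dose together with five library-drug doses (not always all listed) in √10 steps, by pin tool, on the day after seeding. Nuclei were counted after 5 days, and relative viability is the treated-to-vehicle ratio of nuclei counts. Values are medians of duplicate plates.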

[1] = compound: C(C(=O)C(=O)O)Br [Bromopyruvate] + CC1(C)CCC(c2ccc(Cl)cc2)=C(CN2CCN(c3ccc(C(=O)NS(=O)(=O)c4ccc(N[C@H](CCN5CCOCC5)CSc5ccccc5)c(S(=O)(=O)C(F)(F)F)c4)cc3)CC2)C1 [Navitoclax] (partner 0.5 µM); experiment: as above
Procedure, shortened: as §1

Cell Line | relative viability (Bicalutamide + Foretinib; first compound 0.08 µM) | relative viability (Bicalutamide + Foretinib; first compound 0.253 µM) | relative viability (Bicalutamide + Foretinib; first compound 0.8 µM) | relative viability (Bicalutamide + Foretinib; first compound 2.53 µM) | relative viability ([1]; first compound 1 µM) | relative viability ([1]; first compound 3.162 µM) | relative viability ([1]; first compound 10 µM) | relative viability ([1]; first compound 31.62 µM) | relative viability ([1]; first compound 100 µM)
NCI-H2342 | 1.08 | 1.13 | 1.09 | 1.08 | – | – | – | – | –
SK-MES-1 | 0.832 | 0.829 | 0.979 | 1.03 | 1.1 | 1.25 | 1.17 | 1.29 | 1.26
NCI-H1993 | 0.738 | 0.7 | 0.866 | 0.971 | 1.02 | 0.96 | 0.925 | 1.09 | 0.901
HCC-366 | 0.937 | 0.842 | 0.919 | 0.995 | 1.04 | 1.05 | 1.14 | 1.04 | 1.03
201T | 1.01 | 1.02 | 0.892 | 1.09 | 1.28 | 1.15 | 1.18 | 1.2 | 1.19
HCC-827 | 1.09 | 0.881 | 1.04 | 1.01 | 1.02 | 1 | 0.99 | 1.12 | 0.996
NCI-H650 | 1.07 | 1.07 | 1.17 | 0.936 | – | – | – | – | –
NCI-H2085 | 1.02 | 1.1 | 0.878 | 0.753 | 1.08 | 1.19 | 1.25 | 1.07 | 1.05
NCI-H596 | 0.986 | 0.87 | 0.976 | 0.946 | 0.871 | 0.964 | 1.1 | 0.877 | 1.07
SK-LU-1 | 0.99 | 0.785 | 1.01 | 0.78 | 0.866 | 0.971 | 0.935 | 0.734 | 0.574
A-427 | 1.08 | 1.03 | 1.09 | 1.05 | 0.967 | 0.876 | 0.895 | 1.02 | 1.04
NCI-H460 | 1 | 1 | 1.17 | 0.963 | 1.11 | 1.17 | 1.58 | 1.1 | 1.16
NCI-H1703 | 0.342 | 0.36 | 0.41 | 0.293 | 1.06 | 1.22 | 1.42 | 1.34 | 1.16
NCI-H1792 | – | – | – | – | 0.716 | 0.719 | 0.787 | 0.486 | 0.542
Calu-6 | 0.931 | 0.916 | 0.853 | 0.843 | 0.939 | 0.922 | 0.779 | 0.792 | 0.74
SW 1573 | 0.929 | 0.71 | 1.08 | 0.778 | 0.927 | 1.17 | 1.02 | 1.11 | 0.487
RERF-LC-KJ | 0.814 | 0.927 | 1.04 | 0.889 | 1.05 | 0.822 | 1.05 | 0.868 | 0.98
EMC-BAC-2 | 1.02 | 0.867 | 1.02 | 0.928 | 1.02 | 1.17 | 1.31 | 1.15 | 1.25
LK-2 | 1.44 | 0.992 | 1.63 | 1.32 | 0.9 | 0.85 | 0.818 | 0.888 | 0.772
NCI-H2228 | 0.933 | 0.843 | 1 | 1.02 | 0.936 | 0.698 | 0.864 | 0.469 | 0.63

Cell Line | relative viability (Bicalutamide + Foretinib; first compound 0.08 µM) | relative viability (Bicalutamide + Foretinib; first compound 0.253 µM) | relative viability (Bicalutamide + Foretinib; first compound 0.8 µM) | relative viability (Bicalutamide + Foretinib; first compound 2.53 µM) | relative viability ([1]; first compound 1 µM) | relative viability ([1]; first compound 3.162 µM) | relative viability ([1]; first compound 10 µM) | relative viability ([1]; first compound 31.62 µM) | relative viability ([1]; first compound 100 µM)
NCI-H322M | 1.01 | 0.851 | 1.16 | 1.06 | 1.23 | 1.2 | 1.22 | 1.16 | 1.3
NCI-H1975 | 1.07 | 0.824 | 0.971 | 0.827 | 1.18 | 1.26 | 1.08 | 1.31 | 0.994
NCI-H1944 | 0.837 | 0.749 | 0.981 | 0.775 | 1.08 | 1.15 | 1.02 | 1.01 | 1.05
LU99A | 0.773 | 0.815 | 0.892 | 0.578 | 0.767 | 0.696 | 0.834 | 0.558 | 0.411
NCI-H2405 | 1.04 | 1.03 | 1.11 | 1.01 | 0.903 | 0.94 | 0.971 | 0.774 | 1.15
NCI-H2023 | 0.957 | 0.506 | 0.845 | 0.774 | 0.97 | 1.06 | 1.06 | 1.09 | 1.06
HCC-15 | 1.04 | 0.952 | 1.12 | 1.02 | 0.697 | 0.723 | 0.759 | 0.765 | 0.657
HCC-44 | – | – | – | – | 0.907 | 0.967 | 1.08 | 0.96 | 1.04
COR-L23 | 1.04 | 0.981 | 1.12 | 1.02 | 0.77 | 1.05 | 1.12 | 0.851 | 0.401
HCC-78 | 0.566 | 0.543 | 0.55 | 0.52 | 0.386 | 0.759 | 0.977 | 0.893 | 0.886
NCI-H1299 | 1.04 | 1.08 | 1.09 | 1.08 | 1.04 | 1.07 | 1.03 | 1.03 | 1.02
NCI-H838 | 0.994 | 0.963 | 1.08 | 0.928 | 1.11 | 1.16 | 1.3 | 1.17 | 1.28
NCI-H2126 | 1.21 | 1.19 | 1.36 | 1.18 | 0.827 | 0.9 | 0.906 | 0.856 | 0.873
BEN | 0.604 | 0.609 | 0.791 | 0.682 | 0.0705 | 0.0702 | 0.072 | 0.0664 | 0.0566
LCLC-103H | 0.748 | 0.702 | 0.907 | 0.698 | – | – | – | – | –
EKVX | 0.749 | 0.757 | 0.95 | 0.752 | 0.887 | 0.995 | 1.06 | 0.95 | 1.07
LXF-289 | 0.955 | 0.91 | 0.939 | 0.985 | 0.983 | 0.987 | 0.898 | 0.99 | 1.02
ABC-1 | 0.987 | 1.05 | 1.18 | 1.24 | – | – | – | – | –
NCI-H661 | 1.02 | 1.04 | 1.04 | 0.958 | – | – | – | – | –

Reference: the supplement of paper PMC10307832
